From US8008303B2, “Biphenyl derivatives and their use in treating hepatitis C” (AstraZeneca AB, priority 2005, dated 2011)
Read-outs that look alike come from different tables or passages of the source.

Assays:
[1] = tested on: HCV replicon cells Huh 9B; experiment: HCV replicon assay (luciferase readout); format: cell-based
Method in brief: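 Compounds, made up at twice final strength (final DMSO 1%), were added to subgenomic replicon cells one day after plating. Incubation then ran 72 h at 37 °C, 5% CO2, without G418. Replication was quantified as firefly luciferase luminescence in lysed cells, with cytotoxicity assessed on a duplicate clear plate.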

[2] = tested on: HCV replicon cells Huh 9B; format: cell-based
[3] = Hepatitis C virus, 72 h, concentration reducing replicon level (luciferase activity) by 50% vs untreated cell control, 72 h incubation
[4] = concentration reducing total cell area by 50% relative to DMSO controls, methylene blue, absorbance 620 nm, 72 h incubation

Row | SMILES | IC50 [1] [nM] | TD50 [2] | IC50 [1, 3] [nM] | TD50 [2, 4] | IC50 ([1]; Hepatitis C virus, concentration reducing replicon level (luciferase activity) by 50% vs untreated cell control, 72 h incubation) [nM]
1 | Cc1ccc(C(=O)Nc2ccc(N3CCOCC3)cc2)cc1-c1ccc(C(=O)Nc2ccc(CO)cc2)cc1 [Example 81, 6-Methyl-biphenyl-3,4′-dicarboxylic acid 4′-[(4-hydroxymethyl-phenyl)-amide] 3-[(4-morpholin-4-yl-phenyl)-amide]] | 1000 to 5000 | * (key: * < 50 μM; ** > 50 μM) | – | – | –
2 | CNS(=O)(=O)c1ccc(NC(=O)c2ccc(-c3cc(C(=O)Nc4ccc(N5CCOCC5)cc4)ccc3C)cc2)cc1 [Example 29, 6-Methyl-biphenyl-3,4′-dicarboxylic acid 4′-[(4-methylsulfamoyl-phenyl)-amide] 3-[(4-morpholin-4-yl-phenyl)-amide]] | < 1000 | ** (key: * < 50 μM; ** > 50 μM) | – | – | –
3 | Cc1cc(C(=O)Nc2ccc(N3CCOCC3)cc2)ccc1-c1cccc(C(=O)Nc2ccc3cn[nH]c3c2)c1 [Example 63, 2′-Methyl-biphenyl-3,4′-dicarboxylic acid 3-[(1H-indazol-6-yl)-amide] 4′-[(4-morpholin-4-yl-phenyl)-amide]] | < 1000 | * (key: * < 50 μM; ** > 50 μM) | – | – | –
4 | CCOC(=O)c1cccc(NC(=O)c2ccc(-c3cc(C(=O)Nc4ccc(N5CCOCC5)cc4)ccc3C)cc2)c1 [Example 32, 3-{[2′-Methyl-5′-(4-morpholin-4-yl-phenylcarbamoyl) -biphenyl-4-carbonyl]-amino}-benzoic acid ethyl ester] | – | – | < 1000 | ** (** > 50 μM) | –
5 | Cc1ccc(C(=O)Nc2ccc(N3CCOCC3)cc2)cc1-c1ccc(C(=O)Nc2cccc3cc[nH]c23)cc1 [Example 48, 6-Methyl-biphenyl-3,4′-dicarboxylic acid 4′-[(1H-indol-7-yl)-amide] 3-[(4-morpholin-4-yl-phenyl)-amide]] | 1000 to 5000 | ** (key: * < 50 μM; ** > 50 μM) | – | – | –
6 | CS(=O)(=O)N1CCN(Cc2ccc(NC(=O)c3ccc(-c4cc(NC(=O)[C@@H]5CCN5C(=O)O)ccc4OC(F)(F)F)cc3)cc2)CC1 [Example 241, (S)-2-{4′-[4-(4-Methanesulfonyl-piperazin-1-ylmethyl)-phenylcarbamoyl]-6-trifluoromethoxy-biphenyl-3-ylcarbamoyl}-azetidine-1-carboxylic acid] | – | – | < 1000 | * (* < 50 μM) | –
7 | Cc1ccc(NC(=O)C(C)C)cc1-c1ccc(C(=O)Nc2ccc(CN3CCS(=O)(=O)CC3)cc2)cc1 [Example 183, 5′-Isobutyrylamino-2′-methyl-biphenyl-4-carboxylic acid [4-(1,1-dioxo-1lambda*6*-thiomorpholin-4-ylmethyl)-phenyl]-amide] | – | – | < 1000 | * (* < 50 μM) | –
8 | Cc1ccc(NC(=O)CC2CCOCC2)cc1-c1ccc(C(=O)Nc2ccc(CN3CCS(=O)(=O)CC3)cc2)cc1 [Example 171, 2′-Methyl-5′-(2-tetrahydro-pyran-4-yl-acetylamino)-biphenyl-4-carboxylic acid [4-(1,1-dioxo-1lambda*6*-thiomorpholin-4-ylmethyl)-phenyl]-amide] | – | – | < 1000 | * (* < 50 μM) | –
9 | Cc1ccc(C(=O)Nc2ccc(N3CCOCC3)cc2)cc1-c1ccc(C(=O)NCCc2cccs2)cc1 [Example 11, 6-Methyl-biphenyl-3,4′-dicarboxylic acid 3-[(4-morpholin-4-yl-phenyl)-amide] 4′-[(2-thiophen-2-yl-ethyl)-amide]] | 1000 to 5000 | ** (key: * < 50 μM; ** > 50 μM) | – | – | –
10 | Cc1ccc(C(=O)Nc2ccc(N3CCOCC3)cc2)cc1-c1ccc(C(=O)Nc2ccc3cn[nH]c3c2)cc1 [Example 12, 6-Methyl-biphenyl-3,4′-dicarboxylic acid 4′-[(1H-indazol-6-yl)-amide] 3-[(4-morpholin-4-yl-phenyl)-amide]] | 1000 to 5000 | ** (key: * < 50 μM; ** > 50 μM) | – | – | –
11 | Cc1ccc(CNCc2cccc(Cl)c2)cc1-c1ccc(C(=O)Nc2ccc(CN3CCS(=O)(=O)CC3)cc2)cc1 [Example 199, 5′-[(3-Chloro-benzylamino)-methyl]-2′-methyl-biphenyl-4-carboxylic acid [4-(1,1-dioxo-1lambda*6*-thiomorpholin-4-ylmethyl)-phenyl]-amide] | – | – | – | * (* < 50 μM) | 1000 to 5000
12 | Cc1ccc(CNC(=O)c2ccc(-c3cc(C(=O)Nc4ccc(N5CCOCC5)cc4)ccc3C)cc2)o1 [Example 14, 6-Methyl-biphenyl-3,4′-dicarboxylic acid 4′-[(5-methyl-furan-2-ylmethyl)-amide] 3-[(4-morpholin-4-yl-phenyl)-amide]] | 1000 to 5000 | ** (key: * < 50 μM; ** > 50 μM) | – | – | –
13 | Cc1ccc(NC(=O)c2cn[nH]c2)cc1-c1ccc(C(=O)Nc2ccc(N3CCOCC3)cc2)cc1 [Example 108, 1H-Pyrazole-4-carboxylic acid [6-methyl-4′-(4-morpholin-4-yl-phenylcarbamoyl)-biphenyl-3-yl]-amide] | – | – | 1000 to 5000 | ** (** > 50 μM) | –
14 | Cc1ccc(C(=O)Nc2ccc(N3CCOCC3)cc2)cc1-c1ccc(C(=O)Nc2cccc(NS(C)(=O)=O)c2)cc1 [Example 78, 6-Methyl-biphenyl-3,4′-dicarboxylic acid 4′-[(3-methanesulfonylamino-phenyl)-amide] 3-[(4-morpholin-4-yl-phenyl)-amide]] | 1000 to 5000 | * (key: * < 50 μM; ** > 50 μM) | – | – | –
15 | CC(C)S(=O)(=O)N1CCN(Cc2ccc(NC(=O)c3ccc(-c4cc(NC(=O)NC5CCCCC5)ccc4Cl)cc3)cc2)CC1 [Example 254, 2′-Chloro-5′-(3-cyclohexyl-ureido)-biphenyl-4-carboxylic acid {4-[4-(propane-2-sulfonyl)-piperazin-1-ylmethyl]-phenyl}-amide] | – | – | < 1000 | * (* < 50 μM) | –
16 | Cc1ccc(C(=O)Nc2ccc(N3CCOCC3)cc2)cc1-c1ccc(NC(=O)c2ccc(CN3CCS(=O)(=O)CC3)cc2)cc1 [Example 151, 4′-[4-(1,1-Dioxo-1lambda*6*-thiomorpholin-4-ylmethyl)-benzoylamino]-6-methyl-biphenyl-3-carboxylic acid (4-morpholin-4-yl-phenyl)-amide] | – | – | < 1000 | * (* < 50 μM) | –
17 | CCCN(C)Cc1ccc(NC(=O)c2ccc(-c3cc(C(=O)Nc4ccc(N5CCOCC5)cc4)ccc3C)cc2)cc1 [Example 76, 6-Methyl-biphenyl-3,4′-dicarboxylic acid 4′-({4-[(methyl-propyl-amino)-methyl]-phenyl}-amide) 3-[(4-morpholin-4-yl-phenyl)-amide]] | 1000 to 5000 | * (key: * < 50 μM; ** > 50 μM) | – | – | –
18 | COc1cccc(NC(=O)c2cccc(-c3ccc(C(=O)Nc4ccc(N5CCOCC5)cc4)cc3C)c2)c1 [Example 62, 2′-Methyl-biphenyl-3,4′-dicarboxylic acid 3-[(3-methoxy-phenyl)-amide] 4′-[(4-morpholin-4-yl-phenyl)-amide]] | < 1000 | * (key: * < 50 μM; ** > 50 μM) | – | – | –
19 | Cc1ccc(NC(=O)C(C)(C)C)cc1-c1ccc(C(=O)Nc2ccc(CN3CCS(=O)(=O)CC3)cc2)cc1 [Example 184, 5′-(2,2-Dimethyl-propionylamino)-2′-methyl-biphenyl-4-carboxylic acid [4-(1,1-dioxo-1lambda*6*-thiomorpholin-4-ylmethyl)-phenyl]-amide] | – | – | < 1000 | * (* < 50 μM) | –
